Measurements taken from patent publication US12264156B2, “Compounds and pharmaceutical compositions thereof for the treatment of diseases” (GALAPAGOS NV, priority 2018, dated 2025).

What was measured:
Type in all cases: biochemical
Conditions in all cases: ADP-Glo SIK kinase assay
[1] = molecular target: T1, SIK3 (Homo sapiens, UniProt Q9Y2K2); assay: ADP-Glo kinase assay, SIK3
T1 construct: purchased SignalChem S12-11G-100
Method in brief: (§1)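 ADP-Glo, RT throughout. Enz/substrate + ATP, 120 min; ADP-Glo reagent 40 min (ATP depletion); detection reagent 30 min; luminescence read. Neg ctrl 1% DMSO, pos ctrl 10 μM staurosporine, final concs.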

[2] = molecular target: T2, SIK2 (Homo sapiens, UniProt Q9H0K1); assay: ADP-Glo kinase assay, SIK2
T2 construct: purchased ThermoFisher Scientific PV4792
T2 sequence (Q9H0K1 whole entry): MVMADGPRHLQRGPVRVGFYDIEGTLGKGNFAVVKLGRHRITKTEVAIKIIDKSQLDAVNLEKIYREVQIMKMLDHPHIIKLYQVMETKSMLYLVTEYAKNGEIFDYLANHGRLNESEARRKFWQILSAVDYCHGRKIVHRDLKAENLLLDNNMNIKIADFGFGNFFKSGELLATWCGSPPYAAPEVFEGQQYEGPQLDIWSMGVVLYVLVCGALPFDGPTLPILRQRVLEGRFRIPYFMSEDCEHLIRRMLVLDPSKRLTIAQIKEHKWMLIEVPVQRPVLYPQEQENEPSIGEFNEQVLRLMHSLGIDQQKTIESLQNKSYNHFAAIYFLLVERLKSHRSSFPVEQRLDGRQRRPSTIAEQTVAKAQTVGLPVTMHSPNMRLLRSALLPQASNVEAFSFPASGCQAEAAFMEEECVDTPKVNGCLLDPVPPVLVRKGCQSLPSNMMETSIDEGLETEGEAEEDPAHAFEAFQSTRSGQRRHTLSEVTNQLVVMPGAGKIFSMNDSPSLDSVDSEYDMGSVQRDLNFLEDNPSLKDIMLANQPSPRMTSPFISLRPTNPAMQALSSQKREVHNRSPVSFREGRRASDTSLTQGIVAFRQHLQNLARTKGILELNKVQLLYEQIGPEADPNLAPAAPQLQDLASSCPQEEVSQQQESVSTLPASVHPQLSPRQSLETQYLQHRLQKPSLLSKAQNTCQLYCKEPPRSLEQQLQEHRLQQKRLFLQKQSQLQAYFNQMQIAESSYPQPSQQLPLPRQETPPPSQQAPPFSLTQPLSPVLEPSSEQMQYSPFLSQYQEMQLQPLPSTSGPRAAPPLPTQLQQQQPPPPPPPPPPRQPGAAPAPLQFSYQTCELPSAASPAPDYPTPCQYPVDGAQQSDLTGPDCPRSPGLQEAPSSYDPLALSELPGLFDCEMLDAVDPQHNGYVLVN
Method in brief: as §1

[3] = molecular target: T3, SIK1 (Homo sapiens, UniProt P57059); assay: ADP-Glo kinase assay, SIK1
T3 construct: purchased Carna Biosciences 02-131
T3 sequence (P57059 whole entry): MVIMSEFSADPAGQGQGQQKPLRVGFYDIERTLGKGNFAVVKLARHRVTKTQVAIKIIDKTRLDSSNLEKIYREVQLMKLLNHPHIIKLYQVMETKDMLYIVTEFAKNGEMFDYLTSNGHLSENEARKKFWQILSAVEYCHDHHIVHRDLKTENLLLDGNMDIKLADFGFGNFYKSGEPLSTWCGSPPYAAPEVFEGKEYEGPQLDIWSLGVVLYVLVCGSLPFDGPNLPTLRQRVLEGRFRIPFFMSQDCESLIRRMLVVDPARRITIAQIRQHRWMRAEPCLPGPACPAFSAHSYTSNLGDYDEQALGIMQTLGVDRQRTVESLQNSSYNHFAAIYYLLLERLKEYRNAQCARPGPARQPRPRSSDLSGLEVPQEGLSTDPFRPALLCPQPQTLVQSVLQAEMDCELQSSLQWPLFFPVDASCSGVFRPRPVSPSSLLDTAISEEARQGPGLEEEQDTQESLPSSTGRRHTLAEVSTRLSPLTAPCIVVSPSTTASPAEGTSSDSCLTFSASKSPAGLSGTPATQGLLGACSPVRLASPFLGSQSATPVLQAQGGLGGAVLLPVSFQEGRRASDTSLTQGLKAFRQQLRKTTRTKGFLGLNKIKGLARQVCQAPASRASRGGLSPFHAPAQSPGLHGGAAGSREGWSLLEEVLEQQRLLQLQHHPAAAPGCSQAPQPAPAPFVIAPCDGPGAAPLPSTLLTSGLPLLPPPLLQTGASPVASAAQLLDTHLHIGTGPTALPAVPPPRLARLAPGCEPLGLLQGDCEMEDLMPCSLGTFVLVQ
Method in brief: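 Enzyme–substrate mix was started with ATP and incubated 120 min at RT. ADP formed was quantified by ADP-Glo: 40 min ATP depletion, then 30 min detection reagent converting ADP to ATP for luciferase luminescence, which rises with kinase activity. Controls: 1% DMSO and 10 μM staurosporine (final).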

T1 sequence (Q9Y2K2 whole entry): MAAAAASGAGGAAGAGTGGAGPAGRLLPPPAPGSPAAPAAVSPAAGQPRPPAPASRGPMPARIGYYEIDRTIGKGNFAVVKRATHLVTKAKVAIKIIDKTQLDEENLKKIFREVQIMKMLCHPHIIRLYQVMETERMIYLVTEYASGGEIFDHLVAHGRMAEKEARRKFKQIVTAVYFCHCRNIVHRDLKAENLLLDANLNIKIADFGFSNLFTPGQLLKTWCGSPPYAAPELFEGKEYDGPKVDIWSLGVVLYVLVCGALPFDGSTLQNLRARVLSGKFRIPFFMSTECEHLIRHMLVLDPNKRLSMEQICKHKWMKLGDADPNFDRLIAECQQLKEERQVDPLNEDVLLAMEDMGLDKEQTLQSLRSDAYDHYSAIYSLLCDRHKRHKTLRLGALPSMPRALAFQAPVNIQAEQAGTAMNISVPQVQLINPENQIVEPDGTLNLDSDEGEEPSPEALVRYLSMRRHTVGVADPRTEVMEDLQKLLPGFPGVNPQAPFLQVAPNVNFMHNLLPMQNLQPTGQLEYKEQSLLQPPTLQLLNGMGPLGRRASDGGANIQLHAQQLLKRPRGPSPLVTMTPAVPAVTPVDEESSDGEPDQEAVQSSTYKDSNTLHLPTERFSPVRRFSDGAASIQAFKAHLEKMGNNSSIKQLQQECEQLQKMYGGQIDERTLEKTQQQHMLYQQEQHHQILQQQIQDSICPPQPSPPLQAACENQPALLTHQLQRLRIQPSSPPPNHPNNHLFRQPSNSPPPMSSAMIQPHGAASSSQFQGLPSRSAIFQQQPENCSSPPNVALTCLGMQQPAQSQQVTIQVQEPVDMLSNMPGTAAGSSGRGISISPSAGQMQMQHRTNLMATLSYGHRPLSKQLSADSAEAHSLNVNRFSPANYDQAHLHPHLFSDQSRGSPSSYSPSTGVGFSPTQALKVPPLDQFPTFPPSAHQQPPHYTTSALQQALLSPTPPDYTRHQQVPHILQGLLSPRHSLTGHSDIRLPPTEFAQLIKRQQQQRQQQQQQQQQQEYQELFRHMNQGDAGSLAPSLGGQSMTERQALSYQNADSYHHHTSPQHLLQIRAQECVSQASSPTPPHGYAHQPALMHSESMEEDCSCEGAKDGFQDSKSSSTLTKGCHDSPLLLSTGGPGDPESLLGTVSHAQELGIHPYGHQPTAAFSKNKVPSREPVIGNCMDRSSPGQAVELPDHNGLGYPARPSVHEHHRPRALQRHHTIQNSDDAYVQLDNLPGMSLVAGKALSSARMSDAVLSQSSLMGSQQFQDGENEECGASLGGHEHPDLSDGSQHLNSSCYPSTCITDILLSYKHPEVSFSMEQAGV

| SMILES | IC50 [1] [nM] | IC50 [2] [nM] | IC50 [3] [nM] |
| --- | --- | --- | --- |
| COc1cc(-c2cnc3cc(OCC(C)N(C)C)ccn23)cc(OC(F)F)c1C(=O)NC1CC1 (stereo not drawn) [compound 202, N-cyclopropyl-2-(difluoromethoxy)-4-[7-[2-(dimethylamino)propoxy]imidazo[1,2-a]pyridin-3-yl]-6-methoxy-benzamide] | 0.01 to 10 | 0.01 to 10 | 100 to 500 |
| COc1cc(-c2cnc3cc(OCCCN4CCc5ncccc5C4)ccn23)cc(OC(F)F)c1C(=O)NC1CC1 [compound 311, N-cyclopropyl-2-(difluoromethoxy)-4-[7-[3-(7,8-dihydro-5H-1,6-naphthyridin-6-yl)propoxy]imidazo[1,2-a]pyridin-3-yl]-6-methoxy-benzamide] | 0.01 to 10 | 0.01 to 10 | 10 to 100 |
| COc1cc(-c2cnc3cc(OCCCN4[C@H](C)CCC[C@@H]4C)ccn23)cc(OC(F)F)c1C(=O)NC1CC1 [compound 352, N-cyclopropyl-2-(difluoromethoxy)-4-[7-[3-[(2R,6S)-2,6-dimethyl-1-piperidyl]propoxy]imidazo [1,2-a]pyridin-3-yl]-6-methoxy-benzamide] | 0.01 to 10 | 0.01 to 10 | 0.01 to 10 |
| COc1cc(-c2cnc3cc(OCCN(C)c4ccnnc4)ccn23)cc(OC(F)F)c1C(=O)NC1CC1 [compound 240, N-cyclopropyl-2-(difluoromethoxy)-6-methoxy-4-[7-[2-[methyl(pyridazin-4-yl)amino]ethoxy]imidazo [1,2-a]pyridin-3-yl]benzamide] | 0.01 to 10 | 0.01 to 10 | 0.01 to 10 |
| COc1cc(-c2cnc3cc(OCC4CN(C)C(=O)O4)ccn23)cc(OC(F)F)c1C(=O)NC1CC1 (stereo not drawn) [compound 228, N-cyclopropyl-2-(difluoromethoxy)-6-methoxy-4-[7-[(3-methyl-2-oxo-oxazolidin-5-yl)methoxy]imidazo[1,2-a]pyridin-3-yl]benzamide] | 0.01 to 10 | 0.01 to 10 | 0.01 to 10 |
| COc1cc(-c2cnc3cc(OCc4cnn(C)c4)ccn23)cc(OC(F)F)c1C(=O)NC1CC1 [compound 199, N-cyclopropyl-2-(difluoromethoxy)-6-methoxy-4-[7-[(1-methylpyrazol-4-yl)methoxy]imidazo[1,2-a]pyridin-3-yl]benzamide] | 0.01 to 10 | 0.01 to 10 | 10 to 100 |
| COc1cc(-c2cnc3cc(OCCCN4CCCCC4)ccn23)cc(OC(F)F)c1C(=O)N1CC(C#N)C1 [Cpd 357, 1-[2-(difluoromethoxy)-6-methoxy-4-[7-[3-(1-piperidyl)propoxy]imidazo[1,2-a]pyridin-3-yl]benzoyl]azetidine-3-carbonitrile] | 0.01 to 10 | 0.01 to 10 | 10 to 100 |
| COc1cc(-c2cnc3cc(OCC4(N)CCCCC4)ccn23)cc(OC(F)F)c1C(=O)NC1CC1 [compound 169, 4-[7-[(1-aminocyclohexyl)methoxy]imidazo[1,2-a]pyridin-3-yl]-N-cyclopropyl-2-(difluoromethoxy)-6-methoxy-benzamide] | 0.01 to 10 | 10 to 100 | 100 to 500 |
| COc1cc(-c2cnc3cc(OC4CCC(F)(F)C4)ccn23)cc(OC(F)F)c1C(=O)NC1CC1 (stereo not drawn) [compound 62, N-cyclopropyl-4-[7-(3,3-difluorocyclopentoxy)imidazo[1,2-a]pyridin-3-yl]-2-(difluoromethoxy)-6-methoxy-benzamide] | 0.01 to 10 | 10 to 100 | 10 to 100 |
| COc1cc(-c2cnc3cc(OC4CCC(F)(F)CC4)ccn23)cc(OC(F)F)c1C(=O)NC1CC1 [compound 77, N-cyclopropyl-4-[7-(4,4-difluorocyclohexoxy)imidazo[1,2-a]pyridin-3-yl]-2-(difluoromethoxy)-6-methoxy-benzamide] | 0.01 to 10 | 10 to 100 | 100 to 500 |
| COc1cc(-c2cnc3cc(OCC4CCC(=O)N4)ccn23)cc(OC(F)F)c1C(=O)NC1CC1 (stereo not drawn) [compound 99, N-cyclopropyl-2-(difluoromethoxy)-6-methoxy-4-[7-[(5-oxopyrrolidin-2-yl)methoxy]imidazo[1,2-a]pyridin-3-yl]benzamide] | 0.01 to 10 | 0.01 to 10 | 0.01 to 10 |

Other lines, results leading:

| IC50 [1] [nM] | IC50 [2] [nM] | IC50 [3] [nM] | SMILES |
| --- | --- | --- | --- |
| 0.01 to 10 | 0.01 to 10 | 10 to 100 | COc1cc(-c2cnc3cc(OCCN4CCOCC4C#N)ccn23)cc(OC(F)F)c1C(=O)NC1CC1 (stereo not drawn) [compound 178, 4-[7-[2-(3-cyanomorpholin-4-yl)ethoxy]imidazo[1,2-a]pyridin-3-yl]-N-cyclopropyl-2-(difluoromethoxy)-6-methoxy-benzamide] |
| 0.01 to 10 | 0.01 to 10 | 10 to 100 | COc1cc(-c2cnc3cc(OCCN4CCCC4)ccn23)cc(OC(F)F)c1C(=O)NC1CC1 [compound 20, N-cyclopropyl-2-(difluoromethoxy)-6-methoxy-4-[7-(2-pyrrolidin-1-ylethoxy)imidazo[1,2-a]pyridin-3-yl]benzamide] |
| 0.01 to 10 | 10 to 100 | > 500 | COc1cc(-c2cnc3cc(OC4CCCN(C)C4)ccn23)cc(OC(F)F)c1C(=O)NC1CC1 (stereo not drawn) [compound 2, N-cyclopropyl-2-(difluoromethoxy)-6-methoxy-4-[7-[(1-methyl-3-piperidyl)oxy]imidazo [1,2-a]pyridin-3-yl]benzamide] |
| 0.01 to 10 | 0.01 to 10 | 10 to 100 | COc1cc(-c2cnc3cc(OCC4COCCO4)ccn23)cc(OC(F)F)c1C(=O)NC1CC1 (stereo not drawn) [compound 98, N-cyclopropyl-2-(difluoromethoxy)-4-[7-(1,4-dioxan-2-ylmethoxy)imidazo[1,2-a]pyridin-3-yl]-6-methoxy-benzamide] |
| 0.01 to 10 | 0.01 to 10 | 100 to 500 | COc1cc(-c2cnc3cc(OCC4(N)CCC4)ccn23)cc(OC(F)F)c1C(=O)NC1CC1 [compound 174, 4-[7-[(1-aminocyclobutyl)methoxy]imidazo[1,2-a]pyridin-3-yl]-N-cyclopropyl-2-(difluoromethoxy)-6-methoxy-benzamide] |
| 0.01 to 10 | 0.01 to 10 | 10 to 100 | COc1cc(-c2cnc3cc(OCCCN4CCOCC45COC5)ccn23)cc(OC(F)F)c1C(=O)NC1CC1 [compound 296, N-cyclopropyl-2-(difluoromethoxy)-4-[7-[3-(2,8-dioxa-5-azaspiro[3.5]nonan-5-yl)propoxy]imidazo[1,2-a]pyridin-3-yl]-6-methoxy-benzamide] |
| 0.01 to 10 | 0.01 to 10 | 10 to 100 | COc1cc(-c2cnc3cc(OCCCN)ccn23)cc(OC(F)F)c1C(=O)NC1CC1 [compound 115, 4-[7-(3-aminopropoxy)imidazo [1,2-a]pyridin-3-yl]-N-cyclopropyl-2-(difluoromethoxy)-6-methoxy-benzamide] |
| 0.01 to 10 | 0.01 to 10 | 10 to 100 | COc1cc(-c2cnc3cc(OC[C@@H]4COCCO4)ccn23)cc(OC(F)F)c1C(=O)NC1CC1 [compound 120, N-cyclopropyl-2-(difluoromethoxy)-4-[7-[[(2S)-1,4-dioxan-2-yl]methoxy]imidazo[1,2-a]pyridin-3-yl]-6-methoxy-benzamide] |
| 0.01 to 10 | 0.01 to 10 | 10 to 100 | COc1cc(-c2cnc3cc(OCC4CCCCN4)ccn23)cc(OC(F)F)c1C(=O)NC1CC1 (stereo not drawn) [compound 119, N-cyclopropyl-2-(difluoromethoxy)-6-methoxy-4-[7-(2-piperidylmethoxy)imidazo[1,2-a]pyridin-3-yl]benzamide] |
